Assay results: US11834483B2, “Immunostimulatory agents in combination with angiogenesis inhibitors” (Alkermes Pharma Ireland Limited, priority 2020, dated 2023)
Like-named read-outs stand apart in the source and are kept apart here.

B1: fusion protein of SEQ ID NO: 1: circularly permuted (cp) IL-2 variant fused to the extracellular domain of the IL-2Rα portion of the IL-2 receptor (protein)
chain: SKNFHLRPRDLISNINVIVLELKGSETTFMCEYADETATIVEFLNRWITFSQSIISTLTGGSSSTKKTQLQLEHLLLDLQMILNGINNYKNPKLTRMLTFKFYMPKKATELKHLQCLEEELKPLEEVLNLAQGSGGGSELCDDDPPEIPHATFKAMAYKEGTMLNCECKRGFRRIKSGSLYMLCTGNSSHSSWDNQCQCTSSATRNTTKQVTPQPEEQKERKTTEMQSPMQPVDQASLPGHCREPPPWENEATERIYHFVVGQMVYYQCVQGYRALHRGPAESVCKMTHGKTRWTQPQLICTG
modifications: Human cpIL-2IL-2R-alpha
notes: circularly permuted (cp) IL-2 variant fused to the extracellular domain of the IL-2Rα portion of the IL-2 receptor

What was measured:
[1] = system: CD8+ T cells, macrophages, dendritic cells; test: Immune cells in tumors and spleens of treated mice; type: in vivo
Description: The combination therapy of the invention provides many beneficial and unexpected therapeutic effects as evidenced by mice treated with SEQ ID NO: 2, the murine surrogate for SEQ ID NO: 1.

[2] = system: MC38 murine colon carcinoma cells; settings: for Median TTE: endpoint 1000 mm^3, 53 days; for Regressions CR: number of complete regressions; for Regressions PR: number of partial regressions; for Regressions TFS: tumor free survivors
[3] = system: CD8+T cells, NK cells, Tregs; settings: first in human clinical data, U.S. Patent Publication Number 20210038684A1; cited from earlier work
[4] = Group 2: Lenvatinib 10 mg/kg po qd × 28 (vehicle 1 sc)
[5] = Group 2: Lenvatinib 10 mg/kg po qd × 28
[6] = Group 3: Lenvatinib 30 mg/kg po qd × 28 (vehicle 1 sc)
[7] = Group 3: Lenvatinib 30 mg/kg po qd × 28
[8] = Group 4: Lenvatinib 100 mg/kg po qd × 28 (vehicle 1 sc)
[9] = Group 4: Lenvatinib 100 mg/kg po qd × 28

Row | Molecule | macrophages [1] | % TGD [2, 4] [%] | T − C [2, 4] [days] | Median TTE [2, 4] [days] | Regressions CR [2, 5] | Regressions PR [2, 5] | Regressions TFS [2, 5] | % TGD [2, 6] [%] | T − C [2, 6] [days] | Median TTE [2, 6] [days] | Regressions CR [2, 7] | Regressions PR [2, 7] | Regressions TFS [2, 7] | % TGD [2, 8] [%] | T − C [2, 8] [days] | Median TTE [2, 8] [days] | Regressions CR [2, 9] | Regressions PR [2, 9] | Regressions TFS [2, 9] | expansion of CD8+T cells and NK cells versus Tregs [3]
1 | COc1cc2nccc(Oc3ccc(NC(=O)NC4CC4)c(Cl)c3)c2cc1C(N)=O [Lenvatinib, 4-[3-Chloro-4-(cyclopropylaminocarbonyl)aminophenoxy]-7-methoxy-6-quinolinecarboxamide] | decrease in macrophages | 168 | 24.0 | 38.3 | 0 | 1 | 0 | 162 | 23.1 | 37.4 | 0 | 0 | 0 | 164 | 23.4 | 37.7 | 0 | 0 | 0 | 
2 | B1 |  |  |  |  |  |  |  |  |  |  |  |  |  |  |  |  |  |  |  | activates expansion of CD8+T cells and NK cells in a dose dependent manner in the absence of dose dependent activation of Tregs
